Nine compounds from patent publication US3987180A, “1-Propyl-imidazolyl antimycotic compositions and methods of treating mycoses” (Bayer Aktiengesellschaft, priority 1973, dated 1976) can be followed below.

For one test, the system named is Candida albicans. The experiment in a line: Antimycotic activity in vitro (series dilution test), Candida albicans. The format is cell-based. To be noted: nutrient medium, 28° C, 24 to 96 hours, read-out: Minimum inhibitory concentration (MIC), Candida albicans.
The subject of another test is Penicillium commune. The experiment in a line: Antimycotic activity in vitro (series dilution test), Penicillium commune. It counts as cell-based. To be noted: nutrient medium, 28° C, 24 to 96 hours, read-out: Minimum inhibitory concentration (MIC), Penicillium commune.
For test [1], the system named is Trichophyton mentagrophytes. The experiment in a line: Antimycotic activity in vitro (series dilution test), Trichophyton mentagrophytes. The format is cell-based. The following applies: nutrient medium, 28° C, 24 to 96 hours, read-out: Minimum inhibitory concentration (MIC), Trichophyton mentagrophytes.
A further test deals with Aspergillus niger. The experiment in a line: Antimycotic activity in vitro (series dilution test), Aspergillus niger. The format is cell-based. To be noted: nutrient medium, 28° C, 24 to 96 hours, read-out: Minimum inhibitory concentration (MIC), Aspergillus niger.
Test [2] has as its system Trichophyton mentagrophytes. The experiment in a line: Topical application against trichophytosis in guinea pigs. It counts as in vivo. To be noted: 1% strength solution applied locally for 11 to 14 days. The source says:
a. Topical application against trichophytosis in guinea pigs.
A 1% strength solution of the active compounds in a dimethylsulphoxide/glycerol/water mixture (1:3:6) or in polyethylene glycol 400 was applied locally for 11 to 14 days after the trichophytosis (pathogen: Trichophyton mentagrophytes) had been produced experimentally.

In another test the test system is Trichophyton quinckeanum. The experiment in a line: Oral administration against Quinckeanum trichophytosis in white mice. The format is in vivo. The following applies: 100 mg/kg orally twice daily up to the eighth day of the infection. The protocol: b. Oral administration against Quinckeanum trichophytosis in white mice By using doses of 100 mg/kg of body weight, administered orally twice daily up to the eighth day of the infection, it was possible to suppress the development of the Quinckeanum infection in mice.

Values after ≈ are worked out from the molar mass of the structure shown.

On to `CC(C)(C)C(O)(Cc1ccccc1)C(Cn1ccnc1)Oc1ccc(Cl)cc1` (stereo not shown) [Example 2, 1-(imidazol-1-yl)-2-(4-chlorophenoxy)-3-benzyl-3-hydroxy-4,4-dimethyl-pentane], for which the MIC is 64 µg/mL (≈ 160 µM) in the test on Candida albicans, above 64 µg/mL in the test on Penicillium commune, below 1 µg/mL in test [1] and above 64 µg/mL in the test with Aspergillus niger.

`CC(C)(C)C(O)C(Cn1ccnc1)Oc1ccccc1Cl` (stereo not shown) [Example 3]: the results for the MIC (in the test on Candida albicans; with Penicillium commune; in test [1]) were 64 µg/mL (≈ 207 µM), above 64 µg/mL and 32 µg/mL (≈ 104 µM), respectively.

`CC(C)(C)C(O)C(Cn1ccnc1)Oc1ccc(Cl)cc1Cl` (stereo not shown) [Example 5]: the MIC in the test on Candida albicans was 64 µg/mL (≈ 186 µM); in the test with Penicillium commune, above 64 µg/mL; in test [1], 4 µg/mL (≈ 11.7 µM); in the test with Aspergillus niger, 64 µg/mL (≈ 186 µM).

Turning to `CC(C)(C)C(O)C(Cn1ccnc1)Oc1cccc(Cl)c1` (stereo not shown) [Example 4], the MIC is 64 µg/mL (≈ 207 µM) in the test with Candida albicans, above 64 µg/mL in the test with Penicillium commune and above 64 µg/mL in test [1].

Regarding `Cc1cc(Cl)ccc1OC(Cn1ccnc1)C(O)C(C)(C)C` (stereo not shown) [Example 7], the “Action (topical, trichophytosis in guinea pigs)” value in test [2] is “xx (healing of the infection inside 4-6 days after infection.)”. In addition, the “Action against Trichophyton quinckeanum” value in the test on Trichophyton quinckeanum was “xx (fewer than 30% of the animals showed symptoms of the infection.)”. The MIC is 64 µg/mL (≈ 198 µM) in the test on Candida albicans, above 64 µg/mL in the test on Penicillium commune, 4 µg/mL (≈ 12.4 µM) in test [1] and above 64 µg/mL in the test with Aspergillus niger.

For `CC(C)(C)C(C)(O)C(Cn1ccnc1)Oc1ccc(Cl)cc1` (stereo not shown) [Example 9], the “Action (topical, trichophytosis in guinea pigs)” value in test [2] is reported as “xx (healing of the infection inside 4-6 days after infection.)”. Further, in the test on Trichophyton quinckeanum, the “Action against Trichophyton quinckeanum” value is recorded as “xx (fewer than 30% of the animals showed symptoms of the infection.)”. Besides, the MIC with Candida albicans was 64 µg/mL (≈ 198 µM); in the test with Penicillium commune, above 64 µg/mL; in test [1] it was 8 µg/mL (≈ 24.8 µM).

For the compound `CC(C)(C)C(O)C(Cn1ccnc1)Oc1ccccc1` (stereo not shown) [Example 8], the MIC with Candida albicans is 64 µg/mL (≈ 233 µM); with Penicillium commune it was above 64 µg/mL; in test [1], 32 µg/mL (≈ 117 µM).

With `CC(C)(C)C(O)C(Cn1ccnc1)Oc1ccc(F)cc1` (stereo not shown) [Example 6], the MIC in the test on Candida albicans was 64 µg/mL (≈ 219 µM); in the test with Penicillium commune, above 64 µg/mL; in test [1], 64 µg/mL (≈ 219 µM).

Regarding `CC(C)(C)C(O)C(Cn1ccnc1)Oc1ccc(Cl)cc1` (stereo not shown) [Example 1, 1-(imidazol-1-yl)-2-(4-chlorophenoxy)-3-hydroxy-4,4-dimethyl-pentane], the results for the MIC (in the test with Candida albicans; in the test on Penicillium commune; in test [1]) were 64 µg/mL (≈ 207 µM), above 64 µg/mL and 32 µg/mL (≈ 104 µM), respectively.
